Assays:
NLuc::LmxCLK1 [1] = biological target: T1, NLuc::LmxCLK1 (Leishmania mexicana, UniProt E9AMP2); assay: cell-based; type: cell-based
Procedure, shortened: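 NanoBRET tracer displacement in live cells expressing NLuc-tagged CLK1, test compounds at 10 µM fixed, 1% DMSO final. Acceptor/donor emission (610/460 nm) ratio gives mBRET, converted to blank-corrected probe occupancy (%); probe KD from single-site saturation binding fits.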

NLuc::LmxCLK1 [2] = biological target: T1, NLuc::LmxCLK1; assay: In vitro BRET with purified NLuc::LmxCLK1; type: binding
Protocol: (§1) in vitro BRET used purified NLuc-LmxCLK1 in Kinase Buffer (50 mM HEPES, 1 mM EGTA, 10 mM MgCl^2, 2 mM DTT and 0.01% Tween-20) aliquoted into 96-well plates (Greiner #655904). In cell BRET assays used engineered L. mexicana (promastigotes or intramacrophage amastigotes) expressing NLuc-LmxCLK1 in cell media aliquoted into 96-well plates (Greiner, #655083). For tracer titration experiments, BRET probes were serially diluted from 100% DMSO stocks – first in 100% DMSO to 100x final assay concentration, and then in Tracer Dilution Buffer (TDB - 12.5 mM HEPES, pH 7.5; 31.25% PEG 400) to 20x the final assay concentration. Serially diluted probes (5 µL) were added to 85 µL of cells in culture media or 85 µL of purified protein. Final well volumes were adjusted to 100 µL with sterile Opti-MEM™ I Reduced Serum Medium (Thermo-Scientific) – for wells containing cells; or Kinase Buffer - for wells containing purified protein. For tracer displacement assays, samples were prepared as above, but final volume was brought to 100 µL by addition of vehicle or serially-diluted test compounds. Final DMSO concentration in these assays was 1%. Plates were incubated for 30 min at 25 °C (purified protein and promastigotes) or 34 °C (intramacrophage amastigotes), and 50 µL of Promega cocktail containing furimazine and NLuc extracellular inhibitor (catalog #N2161) were added to each well. Light emissions at 460+10 nm (BRET donor) and at 610+20 nm (BRET acceptor) were sequentially recorded (integration time = 0.5 s, gain = 3600) using a luminometer (BMG LABTECH Clariostar or Biotek Synergy HT). BRET values are reported in milli-BRET (mBRET) units (mBU), obtained by dividing the acceptor luminescence by the donor luminescence and multiplying the result by a factor of 1,000. BRET values were converted to blank-corrected probe occupancies (%) according to equation [1]: (1) Probeoccupancy(%)=X−Z/Y−Z×100 where X = mBRET value in the presence of the test compound and the probe, Y = mBRET value in the presence of probe only, and Z = mBRET value in the absence of probe and test compound.
To determine apparent dissociation constants from saturation binding curves, mBRET values were plotted as a function of probe concentration, and probe affinity values (KD) were determined using the hyperbolic dose-response equation for binding to a single site available in GraphPad Prism (v. 9.1.0).

NLuc::LmxCLK1 [3] = biological target: T1, NLuc::LmxCLK1; assay: In-cell BRET target engagement in intracellular amastigotes expressing NLuc::LmxCLK1; type: cell-based
Protocol: (§2) L. mexicana (strain MNYC/BZ/62/M379) promastigotes were cultivated in medium 199 (M199) (Earle’s Salts - Gibco) supplemented with 10% (v/v) heat-inactivated fetal calf serum (HIFCS – Cultilab) and 1% Penicillin/Streptomycin solution (Sigma-Aldrich) at 26 °C. Phenotypic drug response assays in null mutant and point-mutation mutant lines were performed in HOMEM supplemented with 10% (v/v) heat-inactivated fetal calf serum (HIFCS – Gibco). THP-1 monocytes were differentiated in adherent macrophages with 50 ng of PMA for 72 h at 37 °C and 5% CO2 before infection with stationary phase promastigotes (ratio 10 promastigotes:1 macrophage) for 6 h, followed by washing to remove non-internalized Leishmania. Infected macrophages were incubated at 34 °C and 5% CO2 for 48 h in RPMI (Gibco) supplemented with 10% HIFCS and 1% Penicillin/Streptomycin solution.
as §1

LmxCLK1 = biological target: T2, LmxCLK1 (Leishmania mexicana, UniProt E9AMP2); assay: HTRF (TR-FRET) enzymatic inhibition assay; type: biochemical; conditions: IC50 enzymatic inhibition of LmxCLK1, purified LmxCLK1, 30-min pre-incubation, 66 µM ATP
T2 sequence (E9AMP2 1-422): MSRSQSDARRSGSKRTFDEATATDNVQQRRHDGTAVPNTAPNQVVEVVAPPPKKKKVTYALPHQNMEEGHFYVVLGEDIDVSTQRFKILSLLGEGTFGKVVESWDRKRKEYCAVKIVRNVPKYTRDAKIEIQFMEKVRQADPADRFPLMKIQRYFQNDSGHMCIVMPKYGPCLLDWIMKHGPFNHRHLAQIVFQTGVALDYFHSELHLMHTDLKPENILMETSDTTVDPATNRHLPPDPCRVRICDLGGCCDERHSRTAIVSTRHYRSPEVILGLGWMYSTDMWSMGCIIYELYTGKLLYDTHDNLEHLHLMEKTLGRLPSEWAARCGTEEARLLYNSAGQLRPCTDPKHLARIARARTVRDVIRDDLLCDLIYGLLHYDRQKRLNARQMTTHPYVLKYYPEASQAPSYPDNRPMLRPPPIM
Protocol: The enzymatic activity of full-length LmxCLK1 was monitored using a homogenous time-resolved fluorescence (HTRF)-based assay (HTRF KinEASE-STK S3 kit, Cisbio - catalog #62ST3PEC). For IC50 value determination, the data from two independent experiments performed in duplicate were fitted to the sigmoidal dose-response (variable slope) equation available in GraphPad Prism (v. 9.1.0). Detailed information for IC50 determination can be found in the Supplementary Information. […]
min at 4 °C. The supernatants were loaded onto an immobilized metal affinity chromatography (IMAC) […]
column (5 mL HisTrap FF Crude, GE Healthcare) and washed in Binding Buffer containing 30 mM imidazole.
Proteins were eluted in Binding Buffer with 300 mM imidazole. To remove the N-terminal 6xHis-tag […]
introduced during cloning (see above), proteins were incubated with TEV protease during dialysis […]
overnight at 4 °C into Gel Filtration Buffer (20 mM HEPES, 500 mM NaCl, 5% glycerol, 0.5 mM TCEP).
Recombinant proteins were further purified using reverse affinity chromatography on Ni-Sepharose […]
followed by gel filtration (Superdex 200 16/60, GE Healthcare), and concentrated using 10 kDa molecular […]
weight cut-off centrifugal concentrators (Millipore). LmxCLK1 (CQMED clone ID LmxCLK1-cb001) and […]
NLuc-LmxCLK1 (CQMED clone ID LmxCLK1-cb021) proteins were stored at -80 °C for in vitro biochemical […]
assays at 0.5 mg/mL and 0.7 mg/mL, respectively, measured by UV absorbance with a NanoDrop […]
spectrophotometer (Thermo Scientific), using the calculated molecular weight and estimated extinction […]
Purified proteins were further analyzed by LC-ESI-MS in a XEVO G2 Sx Q-ToF (Waters). Expected intact […]
masses for LmxCLK1 (CQMED clone ID LmxCLK1-cb001) and NLuc-LmxCLK1 (CQMED clone ID LmxCLK1- […]
cb021) were: 48,791.14 Da and 68,411.71 Da, respectively.
We monitored the activity of recombinantly produced full-length LmxCLK1 (CQMED clone ID LmxCLK1- […]
cb001) using a commercially-available homogenous time-resolved fluorescence (HTRF)-based assay (HTRF […]
KinEASE-STK S3 kit, Cisbio - catalog #62ST3PEC). Assay development included establishing reaction […]
parameters (optimal enzyme concentration, ATP concentration and reaction time).
(15-point, 3-fold serial dilution and a highest final assay concentration of 10 µM) prior to transfer (100 nL) […]
to a black, 384-well, round bottom, low-volume plate (Corning catalog #4514) containing a mixture of […]
LmxCLK1 and peptide substrate in kinase buffer using an automated liquid transferring system (CYBIO […]
FeliX®, Analytik Jena, Jena, Germany). […]
started by the addition of ATP and allowed to proceed for 75 min at 30 °C. Final concentrations for reaction […]
components were: 6 nM LmxCLK1, 66 µM ATP (10× KM,ATP), 1 µM peptide (STK Substrate 3-biotin, Cisbio).
All components were prepared in 1× Enzymatic Buffer (Cisbio) supplemented with 5 mM MgCl2, 1 mM […]
DTT, 0.01% Tween-20. The reaction was stopped by the addition of Detection Buffer containing EDTA, […]
Fluorescence signal was measured using a CLARIOstar microplate reader (BMG LABTECH) with excitation […]
at 330 nm, emission at 665 nm (acceptor) and 620 nm (donor), integration delay 60 μs and integration […]
time 400 μs. All reactions were done in duplicate and two independent experiments were performed.
Enzyme activity was expressed as the background-corrected HTRF ratio of the acceptor and donor […]
emission signals according to equation [1]:
(also on this page, place not known: imi dazole. Ni -Sepharose background -corrected (665/620)=3Acceptor!!"#$ −backgroundD.10,000 Downloaded from http://pubs.acs.org/aidcbc/article-supplement/3662943/pdf/id5c00610_si_001/ by guest on 07 August 2026) […]
where background is the background fluorescence obtained in the absence of enzyme (blank).
To determine IC50 values, the background-corrected HTRF ratio was plotted as a function of test

[4] = tested on: L. mexicana promastigotes; assay: Promastigote viability (Alamar Blue/resazurin); type: cell-based; conditions: Leishmania mexicana; 48 h compound exposure; read-out: EC50 promastigote viability
Protocol: Next, we evaluated GZD824 ability to reduce the viability of L. mexicana promastigotes by monitoring the reduction of resazurin (Alamar Blue).[31]
as §2
For evaluation of drug effect on promastigote and uninfected macrophage viability, cells were cultivated in the presence of test compounds for 24 h and incubated with 10% AlamarBlue™ Cell Viability Reagent (ThermoFisher) for 24 h before measuring fluorescence at λex 540 nm/λem 590 nm. Untreated cells (1% DMSO) were set as 100 % viable cells. Intracellular amastigotes were treated with compounds for 48 h. Slides with paraformaldehyde-fixed and DAPI-stained cells were imaged on a Zeiss AxioImager microscope – at least 200 macrophages per drug concentration and DMSO control. Experiments were performed in duplicate. The total number of amastigotes was normalized by the number of macrophages counted. For EC50 determination, the data was fitted to the sigmoidal dose-response (variable slope) equation in GraphPad Prism (v.9.1.0).

Compound `Cc1ccc(C(=O)Nc2ccc(CN3CCN(CCCNC(=O)c4ccc(C(=O)O)c(-c5c6ccc(=O)cc-6oc6cc(O)ccc56)c4)CC3)c(C(F)(F)F)c2)cc1C#Cc1cnc2[nH]ncc2c1` [SV366] has an EC80 (NLuc::LmxCLK1 [1]; 0.5 h, read-out: EC80 tracer titration in promastigotes) of 1050 nM, an EC50 (NLuc::LmxCLK1 [1]; read-out: EC50 tracer titration in promastigotes, live promastigotes) of 383 nM and an EC80 (NLuc::LmxCLK1 [2]; 0.5 h, read-out: EC80 tracer titration, purified NLuc-LmxCLK1) of 59.4 nM. It also gave an EC50 (NLuc::LmxCLK1 [2]; read-out: EC50 tracer titration, purified NLuc::LmxCLK1, BRET probe binding) of 8.4 nM, a Kd (NLuc::LmxCLK1 [2]; saturation binding to purified NLuc::LmxCLK1) of 5.9 nM and an EC80 (NLuc::LmxCLK1 [3]; 0.5 h, read-out: EC80 tracer titration in intracellular amastigotes) of 200 nM. For the same compound, the EC50 (NLuc::LmxCLK1 [3]; read-out: EC50 tracer titration in intracellular amastigotes, infected macrophages) was 72.6 nM and the “Lower EC50 in intracellular amastigotes compared to promastigotes” value (NLuc::LmxCLK1 [3]; tracer titration) was “approximately 5 fold”.

Work on `CN[C@@H]1C[C@H]2O[C@@](C)([C@@H]1OC)n1c3ccccc3c3c4c(c5c6ccccc6n2c5c31)C(=O)NC4` [Staurosporine] yielded an IC50 (LmxCLK1) of 460 nM and an EC50 [4] of 900 nM.

In the case of `Cc1ccc(C(=O)Nc2ccc(CN3CCN(CCCNC(=O)CCC4=[N+]5C(=Cc6ccc(-c7ccc[nH]7)n6[B-]5(F)F)C=C4)CC3)c(C(F)(F)F)c2)cc1C#Cc1cnc2[nH]ncc2c1` [SV363], the EC50 (NLuc::LmxCLK1 [2]) is reported as > 1000 nM.

From article PMC7619385 (ACS infectious diseases, 2025)
